Test results taken from patent US20260356860A1, “2-SUBSTITUTED 3,4A,5,7,8,8A-HEXAHYDRO-4H-THIOPYRANO[4,3-DJPYRIMIDIN-4-ONES FOR WOUND TREATMENT” (priority 2022, published 2026).

Assays:
[1] = system: HEK293 SuperTOPFlash reporter cells, Wnt promoter; assay: HEK CELL Wnt Assay (luciferase reporter); type: cell-based; conditions: serial dilutions, with or without 50 ng/mL Wnt3a; 18 h
Procedure: In order to determine the effect of the compounds of Formula (I) on Wnt inhibition, an in vitro assay using HEK293 SuperTOPFlash reporter cells, with the Wnt promoter driving a luciferase reporter gene, were utilized. 40,000 HEK293 SuperTOPFlash reporter cells were seeded, per well, in a 48 well plate for 24 hours, prior to administration of serial dilutions of the compound of Formula (I) to individual wells. Serial dilutions ranging from […] to 1 nM of the compound of Formula (I) were added with or without 50 ng/mL Wnt3a (Time Biosciences) and allowed to incubate with the reporter cells for 18 hours. Reporter cells with no treatment were used as negative control.

[2] = system: wound; conditions: in a GO-HA matrix; cited from earlier work
[3] = system: TK2; conditions: cell-free assay; read-out: IC50, TK2 inhibition; cited from earlier work
[4] = system: TK 1; conditions: cell-free assay; read-out: IC50, TK 1 inhibition; cited from earlier work
[5] = system: ear punch wound; conditions: cited from earlier work
[6] = system: CRE, F-κB, or TGF-β; conditions: cited from earlier work
[7] = system: S. aureus (derived from ATCC ® 6538 ™); assay: Bacteriostasis, log reduction; type: cell-based; conditions: S. aureus ATCC 6538
Procedure: (§1) In order to assess the log reduction capabilities of compounds of Formula (1), testing was performed on organisms that are found in acute and chronic wounds. Triplicate tubes were prepared for each bacteria using 50 μL of inoculum (about 1×10^6 CFU/mL) which was added to 450 μL of compound solution (compound of Formula (I)) (or 100 μL of inoculum in 900 μL of compound solution), resulting in a final inoculum of about 1×10^5 CFU/mL, as shown in Table 4.
(§2) Tubes were mixed with a vortex and then incubated in a shaking incubator at 175 RPM and 35° C. to 37° C.
(§3) Positive control in Tables 5a and 5b was 1 mL of 0.89% saline with 1 mL of the 1×10^6 CFU/mL of the organism.
(§4) For Compounds 1, 7, 8, 10, and 18 in Tables 6, 7-A, 7-B, 8, 9, 10-A, 10-B, and 11: The compound solutions were prepared with compound (30 mg), polysorbate 20 (1.6 mL), butylene glycol (1.6 mL), phosphatidyl choline (0.66 g), ethanol (1.6 mL), hydroxypropyl cellulose (0.26 g), and ultra pure water (24.9 mL).
(§5) XAV939 Control in Table X1 was XAV939 (30 mg), polysorbate 20 (1.6 mL), butylene glycol (1.6 mL), phosphatidyl choline (0.66 g), ethanol (1.6 mL), ultra pure water (24.9 mL), and hydroxypropyl cellulose (0.26 g).
(§6) GO-HA Control in Table X2 was GO-HA (30 mg), polysorbate 20 (1.6 mL), butylene glycol (1.6 mL), phosphatidyl choline (0.66 g), ethanol (1.6 mL), ultra pure water (24.9 mL), and hydroxypropyl cellulose (0.26 g).
(§7) For Compound 18+GO-HA in Tables 6 and X4: compound 18 (45 mg), GO-HA (45 mg), polysorbate 20 (2 mL), butylene glycol (2 mL), phosphotidyl choline (0.5 g), ethanol (2 mL), hydroxypropyl cellulose (0.40 g), and ultra pure water (40 mL).
(§8) For XAV939+GO-HA in Tables 6 and X3-A, and X3-B: XAV939 (45 mg), GO-HA (45 mg), butylene glycol (2 mL), polysorbate 20 (2 mL), phosphotidyl choline (0.5 g), ethanol (2 mL), hydroxypropyl cellulose (0.40 g), and ultra pure water (40 mL).
(§9) Testing was performed at two time points: 18 to 24 hours, and […].

[8] = system: E. coli (derived from ATCC ® 8739 ™); assay: Bacteriostasis, log reduction; type: cell-based; conditions: E. coli ATCC 8739
Procedure: as §1, §2, §3, §4, §5, §6, §7, §8, §9

[9] = system: P. aeruginosa (derived from ATCC ® 15442 ™); assay: Bacteriostasis, log reduction; type: cell-based; conditions: P. aeruginosa ATCC 15442
Procedure: as §1, §2, §3, §4, §5, §6, §7, §8, §9

[10] = system: E. faecalis (derived from ATCC ® 19433 ™); assay: Bacteriostasis, log reduction; type: cell-based; conditions: E. faecalis ATCC 19433
Procedure: as §1, §2, §3, §4, §5, §6, §7, §8, §9

[11] = system: S. aureus (MRSA) (derived from ATCC ® 33593 ™); assay: Bacteriostasis, log reduction; type: cell-based; conditions: S. aureus (MRSA) ATCC 33593
Procedure: as §1, §2, §3, §4, §5, §6, §7, §8, §9

[12] = system: S. epidermidis (derived from ATCC ® 14990 ™); assay: Bacteriostasis, log reduction; type: cell-based; conditions: S. epidermidis ATCC 14990
Procedure: as §1, §2, §3, §4, §5, §6, §7, §8, §9

[13] = system: E. coli (derived from ATCC ® 25922 ™); assay: Bacteriostasis, log reduction; type: cell-based; conditions: E. coli ATCC 25922
Procedure: as §1, §2, §3, §4, §5, §6, §7, §8, §9

[14] = cited from earlier work

Oc1nc(-c2ccc(C(F)(F)F)cc2)nc2c1CSCC2 [XAV939, reference compound]
IC50 [1]: 50 nM
quality of wound healing [2]: substantial improvement to the quality of wound healing
IC50 [3]: 4 nM
IC50 [4]: 11 nM
cartilage regeneration and healing ([5]; 2 mm biopsy punch wound in cartilaginous region of C57B1/CJ mouse): increased cartilage regeneration and healing
wound closure rate and fibrosis ([5]; topical, mouse ear punch): significantly increased rate of wound closure with reduced fibrosis (scarring)
effect on CRE, F-κB, or TGF-β [6]: does not affect CRE, F-κB, or TGF-β
Average result ([7]; 24 h): 2.5 × 10^3
Log Reduction ([7]; 24 h): 1.9
Log Value ([7]; 24 h): 3.4
Average result ([7]; 72 h): 1.7 × 10^5
Log Reduction ([7]; 72 h): 0.1
Log Value ([7]; 72 h): 5.2
Average result ([8]; 24 h): 2.7 × 10^3
Log Reduction ([8]; 24 h): 1.9
Log Value ([8]; 24 h): 3.4
Average result ([8]; 72 h): <200
Log Reduction ([8]; 72 h): >3.0
Log Value ([8]; 72 h): <2.3
Average result ([9]; 24 h): <200
Log Reduction ([9]; 24 h): >3.1
Log Value ([9]; 24 h): <2.3
Average result ([9]; 72 h): <200
Log Reduction ([9]; 72 h): >3.1
Log Value ([9]; 72 h): <2.3
Average result ([10]; 24 h): 2.6 × 10^5
Log Reduction ([10]; 24 h): No
Log Value ([10]; 24 h): 5.4
Average result ([10]; 72 h): 1.7 × 10^5
Log Reduction ([10]; 72 h): No
Log Value ([10]; 72 h): 5.1
Average result ([11]; 24 h): 8.7 × 10^4
Log Reduction ([11]; 24 h): No
Log Value ([11]; 24 h): 4.9
Average result ([11]; 72 h): <6.8 × 10^3
Log Reduction ([11]; 72 h): >0.8
Log Value ([11]; 72 h): <3.8
Average result ([12]; 24 h): 5.5 × 10^4
Log Reduction ([12]; 24 h): 0.1
Log Value ([12]; 24 h): 4.7
Average result ([12]; 72 h): <200
Log Reduction ([12]; 72 h): >2.5
Log Value ([12]; 72 h): <2.3
Average result ([13]; 24 h): 2.8 × 10^4
Log Reduction ([13]; 24 h): 1.0
Log Value ([13]; 24 h): 4.4
Average result ([13]; 72 h): <200
Log Reduction ([13]; 72 h): >3.1
Log Value ([13]; 72 h): <2.3
solubility in water-based solutions [14]: poor solubility in water-based solutions
aqueous solubility ([14]; water): < 1 µg/mL
